Test results from patent publication US20210252151A1, “METHOD FOR OPTICAL OPENING OF THE BLOOD-BRAIN BARRIER” (BOARD OF REGENTS, THE UNIVERSITY OF TEXAS SYSTEM, priority 2018, published 2021).

System: BBB of C57BL/6 mice
Experiment: Delivery of functional molecules to the brain after BBB transient opening
Format: in vivo, mouse
Conditions: after TJ-targeting AuNP and ps laser (25 mJ/cm^2, 1 pulse)
Protocol: To measure the penetration of functional molecule, the anti-cancer drug, doxorubicin, and antibody (human IgG) instead of Evans blue dye were inject intravenously. To test endogenous mouse IgG extravasation, the secondary antibody was incubated with mouse brain tissue sections, followed by fluorescent signal detection.

COc1cccc2c1C(=O)c1c(O)c3c(c(O)c1C2=O)C[C@@](O)(C(=O)CO)C[C@@H]3O[C@H]1C[C@H](N)[C@H](O)[C@H](C)O1 [Dox, doxorubicin]
crossing of the BBB (extravasation into brain): obvious Dox across the BBB
